Laboratory results taken from ChEMBL document CHEMBL1137279, “Synthesis of N1-arylidene-N2-quinolyl- and N2-acrydinylhydrazones as potent antimalarial agents active against CQ-resistant P. falciparum strains” (Bioorg Med Chem Lett, 2006).

Legend:
Plasmodium falciparum [1] = assay: Antimalarial activity against chloroquine-sensitive Plasmodium falciparum D10; assay type: functional, organism-based
Plasmodium falciparum [2] = assay: Antimalarial activity against chloroquine-sensitive Plasmodium falciparum 3D7; assay type: functional, organism-based
Plasmodium falciparum [3] = assay: Antimalarial activity against chloroquine-resistant Plasmodium falciparum K1; assay type: functional, organism-based
Plasmodium falciparum [4] = assay: Antimalarial activity against chloroquine-resistant Plasmodium falciparum W2; assay type: functional, organism-based
[5] = Cytotoxicity against mouse WEHI cell line by MTT assay; assay type: cell-based; settings: WEHI cells, read-out: ED50 (the source's name)

SMILES	IC50 (Plasmodium falciparum [1]) [nM]	IC50 (Plasmodium falciparum [2]) [nM]	IC50 (Plasmodium falciparum [3]) [nM]	IC50 (Plasmodium falciparum [4]) [nM]	CC50 [5] [nM]
Clc1ccc2c(N/N=C/c3ccc(CN4CCCC4)cc3)ccnc2c1	28.8	19.1	16.4	58.3	19400
COc1ccc(/C=N/Nc2ccnc3ccc(OC)cc23)cc1	99	–	–	128	–
COc1ccc2nc3cc(Cl)ccc3c(N/N=C/c3ncc[nH]3)c2c1	62.6	1	4.5	30.8	5100
COc1ccc(/C=N/Nc2ccnc3cc4c(cc23)OCO4)cc1	210	155	467	163	–
CCN(CC)Cc1ccc(/C=N/Nc2ccnc3ccc(OC)cc23)cc1	39.2	11	55.1	79	–
COc1cccc2c(N/N=C/c3ccccc3)ccnc12	519	5700	–	254	–
COc1ccc2nc3cc(Cl)ccc3c(N/N=C/c3ncc[nH]3)c2n1	72	283	198	26.9	–
COc1ccc2nccc(N/N=C/c3ccc(N(C)C)cc3)c2c1	83	–	–	104	–
COc1ccc2nc3cc(Cl)ccc3c(N/N=C/c3ccc(CN4CCCC4)cc3)c2c1	97	112	–	137	–
COc1cccc2c(N/N=C/c3ccc(N(C)C)cc3)ccnc12	337	–	–	356	–
CCN(CC)CCCC(C)Nc1ccnc2cc(Cl)ccc12 (stereo not given) [CHLOROQUINE]	–	–	–	–	9700
